Measured values: patent US20080280933A1, “BENZIMIDAZOLYL COMPOUNDS” (priority 2006, published 2008)
pEC50: −log10 of the molar value.

Target: T1, mGluR2 receptor (metabotropic glutamate receptor 2) (Homo sapiens, UniProt Q14416)
T1 construct: expressed in transfected cells
Experiment: mGluR2 Potentiator Screen, FLIPR, EC10-EC20 glutamate challenge
Type: cell-based
Conditions: EC50 (uM)
Outline: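 HEK cells stably co-expressing mGluR2 and Gα15, kept glutamine-free overnight, were loaded with Fluo-4 plus probenecid and GPT/pyruvate. Compounds (top 10 μM) were added ≥30 min before an EC10–EC20 glutamate challenge. Peak FLIPR fluorescence ratios were curve-fitted, excluding points above maximal effect, with maxima from on-plate standards.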

T1 sequence (Q14416 19-872, species assumed): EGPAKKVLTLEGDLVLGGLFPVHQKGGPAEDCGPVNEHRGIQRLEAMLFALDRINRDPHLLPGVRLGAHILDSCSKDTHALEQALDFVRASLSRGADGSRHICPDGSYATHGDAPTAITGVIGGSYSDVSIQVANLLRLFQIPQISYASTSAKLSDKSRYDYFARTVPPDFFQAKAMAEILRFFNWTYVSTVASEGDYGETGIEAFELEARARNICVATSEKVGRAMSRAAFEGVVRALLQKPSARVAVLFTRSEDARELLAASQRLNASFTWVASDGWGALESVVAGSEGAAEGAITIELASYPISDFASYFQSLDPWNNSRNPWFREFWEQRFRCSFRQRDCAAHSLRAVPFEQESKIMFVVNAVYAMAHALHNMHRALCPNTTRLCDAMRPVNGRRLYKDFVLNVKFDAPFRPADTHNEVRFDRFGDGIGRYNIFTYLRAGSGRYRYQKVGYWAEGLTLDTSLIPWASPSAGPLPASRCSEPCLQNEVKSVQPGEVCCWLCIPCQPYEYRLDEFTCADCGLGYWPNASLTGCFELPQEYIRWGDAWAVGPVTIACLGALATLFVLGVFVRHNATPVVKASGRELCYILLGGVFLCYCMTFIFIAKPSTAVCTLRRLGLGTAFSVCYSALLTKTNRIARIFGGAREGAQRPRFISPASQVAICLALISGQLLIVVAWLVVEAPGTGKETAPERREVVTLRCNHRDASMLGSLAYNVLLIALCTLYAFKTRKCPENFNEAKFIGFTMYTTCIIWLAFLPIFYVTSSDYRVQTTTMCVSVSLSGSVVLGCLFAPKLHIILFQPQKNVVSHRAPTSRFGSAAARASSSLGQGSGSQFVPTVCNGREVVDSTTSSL

SMILES | EC50
COc1cccc(C2(C#N)CCN(Cc3nc4ccccc4n3C)CC2)c1 [compound 72] | 10.6 µM
CC(=O)C1(c2ccccc2)CCN(Cc2nc3ccccc3n2C)CC1 [compound 66] | > 5.23 µM
Cn1c(CN2CCC(C#N)(c3ccccc3)CC2)nc2ccccc21 [compound 77] | > 4.71 µM

Same assay, conditions: listed as 9; read-out: EC50

SMILES | pEC50
Cc1ccc2nc(CN3CCC(c4ccccc4F)CC3)n(C)c2c1 [Entry 279] | 5.66

Same assay, conditions: mGluR2 potentiator screen, Table 7; read-out: EC50

SMILES | pEC50
Clc1ccc(OCC2CCC2)c(C2CCN(Cc3nc4ccccc4n3C3CC3)CC2)c1 [compound 192] | 5.65
CCOc1ccc(Cl)cc1C1CCN(Cc2nc3ccccc3n2C)CC1 [compound 224] | 5.37
COC(=O)[C@H]1CN(Cc2nc3ccccc3n2C)C[C@@H]1c1ccc(Cl)cc1 [compound 156] | 5.07
COc1ccc(OC)c(C2CCN(Cc3nc4ccccc4n3C)CC2)c1 [compound 163] | 6.03
CC(C)COc1ccc(Cl)cc1C1CCN(Cc2nc3ccccc3n2C2CC2)CC1 [compound 179] | 5.76
COCCn1c(CN2CCC(c3cc(Cl)ccc3OCC3CCCO3)CC2)nc2ccccc21 (stereo not shown) [compound 209] | 5.77
FCCn1c(CN2CCC(c3cc(Cl)ccc3OCC3CCCCO3)CC2)nc2ccccc21 (stereo not shown) [compound 217] | 5.93
CCCCN1CC2(CCN(Cc3nc4ccccc4n3C)CC2)c2cc(C)cc(C)c21 [compound 149] | 5.79
CCCCOc1ccc(Cl)cc1C1CCN(Cc2nc3ccccc3n2C)CC1 [compound 185] | 6.86
COC(=O)[C@H]1CN(Cc2nc3ccccc3n2C)C[C@@H]1c1ccc(C(F)(F)F)cc1 [compound 153] | 5.32

Same assay, conditions: read-out: EC50

SMILES | pEC50
C[C@@H]1CN(c2cccc(C3CCN(Cc4nc5ccccc5n4C)CC3)c2)C[C@H](C)O1 [compound 83] | 6.09
FCCn1c(CN2CCC(c3ccccc3C(F)(F)F)CC2)nc2ccccc21 [compound 243] | 5.90
CN1CC2(CCN(Cc3nc4ccccc4n3C)CC2)c2cc(Cl)ccc21 [compound 131] | 5.75
FC(F)(F)c1ccc(C2CCN(Cc3nc4ccccc4n3C3CC3)CC2)cc1 [compound 247] | 6.09
CC(=O)N1CC2(CCN(Cc3nc4ccccc4n3C)CC2)c2cc(F)ccc21 [compound 19] | 5.32
Cc1ccccc1C1CCN(Cc2nc3ccccc3n2C)CC1 [compound 429] | 7.19
Cn1c(CN2CCC3(CC2)CN(CC(C)(C)C)c2ccccc23)nc2ccccc21 [compound 111] | 4.99
COCCn1c(CN2CC[C@H](c3ccccc3OC)[C@H](C)C2)nc2ccccc21 (relative stereo) [compound 336] | 5.63
CC[C@H](C)COc1ccccc1C1CCN(Cc2nc3ccccc3n2C)CC1 [compound 94] | 5.79
Cn1c(CN2CCC(c3ccc(C(F)(F)F)cc3F)CC2)nc2cc(C#N)ccc21 [compound 391] | 7.35
Cn1c(CN2CCC(c3ccc(C(F)(F)F)cc3F)CC2)nc2c(F)cccc21 [compound 398] | 7.40
COc1ccccc1C1(OC)CCN(Cc2nc3ccccc3n2CF)CC1C (stereo not shown) [compound 334] | < 5.15
C[C@@H]1CN(Cc2nc3ccccc3n2C)CC[C@@H]1c1ccccc1F (relative stereo) [compound 405] | 6.91
Cn1c(CN2CCC(c3ccc(OC(F)(F)F)cc3)CC2)nc2ccccc21 [compound 340] | 6.70
COc1ccccc1C1CCN(Cc2nc3ccccc3n2CF)CC1 [compound 254] | 7.20
Cn1c(CN2CCC(c3ccc(C(F)(F)F)cc3)CC2)nc2cc(C(F)(F)F)ccc21 [compound 362] | 5.30
Cn1c(CN2CCC(c3ccc(C(F)(F)F)cc3)C(C)(C)C2)nc2ccccc21 (stereo not shown) [compound 411] | 6.20
COc1ccccc1C1CCN(Cc2nc3ccccc3n2CF)CC1C (stereo not shown) [compound 294] | 6.13
CCCCCOc1ccccc1C1CCN(Cc2nc3ccccc3n2C)CC1 [compound 93] | 6.49
COC(=O)CCC(=O)N1CC2(CCN(Cc3nc4ccccc4n3C)CC2)c2cc(C)ccc21 [compound 34] | 5.50
COCn1c(CN2CCC(c3ccccc3F)CC2)nc2ccccc21 [compound 286] | 5.34
COCn1c(CN2CCC(c3cc(C(F)(F)F)ccc3F)CC2)nc2ccccc21 [compound 330] | 6.01
Cc1cc(C)c2c(c1)C1(CCN(Cc3nc4ccccc4n3C)CC1)CN2CCC(C)C [compound 121] | 5.94
Cc1ccc2nc(CN3CCC(c4ccccc4F)CC3)n(C)c2c1 [Entry 279] | 6.49

SMILES | pEC50
Cn1c(CN2CCC(c3ccccc3F)CC2)nc2ccc(C#N)cc21 [Entry 275, 2-((4-(2-Fluorophenyl)piperidin-1-yl)methyl)-3-methyl-3H-benzo[d]imidazole-5-carbonitrile] | 6.68
FCCn1c(CN2CCC(c3cc(C(F)(F)F)ccc3F)CC2)nc2ccccc21 [compound 329] | 6.33
C[C@@H]1CN(Cc2nc3ccccc3n2C)CC[C@@H]1c1ccc(F)cc1F (relative stereo) [compound 463] | 7.39
Cc1cc(C)c2c(c1)C1(CCN(Cc3nc4ccccc4n3C)CC1)CN2CC1CCCO1 (stereo not shown) [compound 123] | 5.30
Cn1c(CN2CCC(c3cc(F)cc(F)c3)CC2)nc2c(F)cccc21 [compound 395] | 6.48
COc1ccc(-c2ccc3nc(CN4CCC(c5ccccc5F)CC4)n(C)c3c2)cn1 [compound 277] | 7.35
Cn1c(CN2CCC(c3ccccc3O[C@H]3CCOC3)CC2)nc2ccccc21 [compound 101] | 5.24
Cn1c(CN2CCC(c3cc(F)ccc3F)CC2)nc2ccccc21 [compound 311] | 7.79
CCCN(CC1CC1)C(=O)c1cccc(C2CCN(Cc3nc4ccccc4n3C)CC2)c1 [compound 436] | 5.66
Cc1ccc2c(c1)C1(CCN(Cc3nc4ccccc4n3C)CC1)CN2C(=O)c1ccoc1 [compound 29] | 5.61
Cn1c(CN2CCC(c3ccc(F)c(Cl)c3)CC2)nc2ccccc21 [compound 443] | 7.24
COc1ccccc1C1CCN(Cc2nc3cc(Cl)ccc3n2C)CC1 [compound 285] | 7.31
Cn1c(CN2CCC(c3ccccc3C(F)(F)F)CC2)nc2cc(C#N)ccc21 [compound 403] | 6.65
Cn1c(CN2CCC(c3cc(Cl)ccc3F)CC2)nc2cc(C#N)ccc21 [compound 387] | 6.70
COc1cc(C(F)(F)F)ccc1C1CCN(Cc2nc3cc(F)ccc3n2C)CC1 [compound 349] | 7.46
CCCCN1CC2(CCN(Cc3nc4ccccc4n3C)CC2)c2cc(Cl)ccc21 [compound 127] | 5.55
Cn1c(CN2CCC3(CC2)CN(CC2CC2)c2ccc(F)cc23)nc2ccccc21 [compound 138] | 5.07
Cn1c(CN2CCC(c3ccccc3F)CC2)nc2c(F)cccc21 [Entry 325, 4-Fluoro-2-((4-(2-Fluorophenyl)piperidin-1-yl)methyl)-1-methyl-1H-benzo[d]imidazole] | 7.47
C[C@@H]1CN(Cc2nc3ccccc3n2C)CC[C@@H]1c1ccc(C(F)(F)F)c(F)c1 (relative stereo) [compound 465] | 6.43
CCC(C)CN1CC2(CCN(Cc3nc4ccccc4n3C)CC2)c2ccccc21 (stereo not shown) [compound 133] | 5.21
Fc1ccccc1C1CCN(Cc2nc3ccccc3n2C2CC2)CC1 [compound 251] | 5.87
Cn1c(CN2CCC3(CC2)CN(CC2CC2)c2ccccc23)nc2ccccc21 [compound 134] | 5.13
CC(C)Oc1ccccc1C1CCN(Cc2nc3c(F)cccc3n2C)CC1 [compound 393] | 5.99
